According to the NIST ThermoML archive (doi:10.1016/j.jct.2014.01.007):
Numbers after ± are expanded uncertainties.

Legend:
[1] = molar enthalpy of vaporization or sublimation; conditions: 298.15 K; Liquid; Static calorimetry
[2] = for mass density: 101.33 kPa; for Triple point temperature: DTA
[3] = Molar enthalpy of transition or fusion; conditions: DSC

In the case of `CN(C)C(=N)N(C)C` [1,1,3,3-tetramethylguanidine], the molar enthalpy [1] is reported as 11.9 ± 0.359 kcal/mol, the mass density ([2]; 288.15 K, Liquid, Vibrating tube method) is reported as 921.517 ± 0.12 kg/m3 and the mass density ([2]; 293.15 K, Liquid, Vibrating tube method) is reported as 917.012 ± 0.12 kg/m3. For the same molecule, the mass density ([2]; 298.14 K, Liquid, Vibrating tube method) was 912.5 ± 0.12 kg/m3, the mass density ([2]; 303.15 K, Liquid, Vibrating tube method) was 907.982 ± 0.12 kg/m3 and the mass density ([2]; 308.15 K, Liquid, Vibrating tube method) was 903.458 ± 0.12 kg/m3.

`CN(C)C(N)=[N+](C)C.O=[N+]([O-])[O-]` [tetramethylguanidinium nitrate] showed a mass density ([2]; 167 K, Crystal 2, X-ray diffraction) of 1295 ± 7 kg/m3, a mass density ([2]; 251 K, Crystal 1, X-ray diffraction) of 1284 ± 7 kg/m3 and a Triple point temperature ([2]; Crystal 1) of 365.9 ± 0.5 K. The Triple point temperature ([2]; Crystal 2) was 221.4 ± 1.7 K, the “Molar enthalpy of transition or fusion” value ([3]; Crystal 1) was 4.74 ± 0.122 kcal/mol and the “Molar enthalpy of transition or fusion” value ([3]; Crystal 2) was 0.159 ± 0.0335 kcal/mol.
